Columns and labels:
Assay in all cases: cells
COLO-800 = type: functional, cell-based, Homo sapiens; details: Homo sapiens, COLO-800;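 also: growth inhibition of COLO-800 cells, read out with a cell viability assay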
Description: SANGER: Inhibition of human COLO-800 cell growth in a cell viability assay.

D283 Med = type: functional, cell-based, Homo sapiens; details: Homo sapiens, D283 Med
Description: SANGER: Inhibition of human D-283MED cell growth in a cell viability assay.

DK-MG = type: functional, cell-based, Homo sapiens; details: Homo sapiens, DK-MG;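 also: growth inhibition of DK-MG cells, read out with a cell viability assay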
Description: SANGER: Inhibition of human DK-MG cell growth in a cell viability assay.

ES6 = type: functional, cell-based, Homo sapiens; details: Homo sapiens, ES6;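 also: growth inhibition of human ES6 cells, read out with a cell viability assay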
Description: SANGER: Inhibition of human ES6 cell growth in a cell viability assay.

EW-11 = type: functional, cell-based, Homo sapiens; details: Homo sapiens, EW-11;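 also: growth inhibition of human EW-11 cells, measured with a cell viability assay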
Description: SANGER: Inhibition of human EW-11 cell growth in a cell viability assay.

EW-3 = type: functional, cell-based; details: Homo sapiens;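 also: cell viability assay read-out, IC50 reflects inhibition of growth of the EW-3 cells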
Description: SANGER: Inhibition of human EW-3 cell growth in a cell viability assay.

GAK = type: functional, cell-based, Homo sapiens; details: Homo sapiens, GAK;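 also: cell growth inhibition read out by a cell viability assay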
Description: SANGER: Inhibition of human GAK cell growth in a cell viability assay.

HCC1937 = type: functional, cell-based, Homo sapiens; details: Homo sapiens, HCC1937;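 also: growth inhibition measured with a cell viability read-out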
Description: SANGER: Inhibition of human HCC1937 cell growth in a cell viability assay.

HCC1954 = type: functional, cell-based, Homo sapiens; details: Homo sapiens, HCC1954;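 also: growth inhibition of human HCC1954 cells, read out with a cell viability assay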
Description: SANGER: Inhibition of human HCC1954 cell growth in a cell viability assay.

HCC2218 = type: functional, cell-based; details: Homo sapiens;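 also: cell viability assay read-out, with IC50 given as the concentration that inhibits growth of the cell line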
Description: SANGER: Inhibition of human HCC2218 cell growth in a cell viability assay.

Huh-7 = type: functional, cell-based, Homo sapiens; details: Homo sapiens, Huh-7;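 also: HuH-7 cell growth inhibition, read out with a cell viability assay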
Description: SANGER: Inhibition of human HuH-7 cell growth in a cell viability assay.

IA-LM = type: functional, cell-based, Homo sapiens; details: Homo sapiens, IA-LM;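 also: cell viability assay measuring growth inhibition of human IA-LM cells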
Description: SANGER: Inhibition of human IA-LM cell growth in a cell viability assay.

IST-SL1 = type: functional, cell-based, Homo sapiens; details: Homo sapiens, IST-SL1;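 also: growth inhibition of human IST-SL1 cells, read out with a cell viability assay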
Description: SANGER: Inhibition of human IST-SL1 cell growth in a cell viability assay.

KE-37 = type: functional, cell-based; details: Homo sapiens;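 also: growth inhibition of KE-37 cells, read out with a cell viability assay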
Description: SANGER: Inhibition of human KE-37 cell growth in a cell viability assay.

KLE = type: functional, cell-based, Homo sapiens; details: Homo sapiens, KLE;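 also: growth inhibition of human KLE cells, read out with a cell viability assay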
Description: SANGER: Inhibition of human KLE cell growth in a cell viability assay.

KS-1 = type: functional, cell-based, Homo sapiens; details: Homo sapiens, KS-1;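 also: growth inhibition of KS-1 cells, read out with a cell viability assay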
Description: SANGER: Inhibition of human KS-1 cell growth in a cell viability assay.

LAN-6 = type: functional, cell-based, Homo sapiens; details: Homo sapiens, LAN-6;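 also: growth inhibition of LAN-6 cells, determined with a cell viability assay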
Description: SANGER: Inhibition of human LAN-6 cell growth in a cell viability assay.

LS-123 = type: functional, cell-based, Homo sapiens; details: Homo sapiens, LS-123
Description: SANGER: Inhibition of human LS-123 cell growth in a cell viability assay.

MC-IXC = type: functional, cell-based, Homo sapiens; details: Homo sapiens, MC-IXC;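 also: growth inhibition of MC-IXC cells, read out with a cell viability assay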
Description: SANGER: Inhibition of human MC-IXC cell growth in a cell viability assay.

MDA-MB-453 = type: functional, cell-based, Homo sapiens; details: Homo sapiens, MDA-MB-453
Description: SANGER: Inhibition of human MDA-MB-453 cell growth in a cell viability assay.

MEG-01 = type: functional, cell-based; details: Homo sapiens;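 also: growth inhibition of MEG-01 cells, read out by a cell viability assay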
Description: SANGER: Inhibition of human MEG-01 cell growth in a cell viability assay.

MFH-ino = type: functional, cell-based; details: Homo sapiens;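 also: growth inhibition of human MFH-ino cells, read out by a cell viability assay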
Description: SANGER: Inhibition of human MFH-ino cell growth in a cell viability assay.

MKN-1 = type: functional, cell-based, Homo sapiens; details: Homo sapiens, MKN-1;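 also: growth inhibition of human MKN1 cells, read out by a cell viability measurement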
Description: SANGER: Inhibition of human MKN1 cell growth in a cell viability assay.

NCI-H1437 = type: functional, cell-based, Homo sapiens; details: Homo sapiens, NCI-H1437;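 also: growth inhibition of human NCI-H1437 cells, read out by a cell viability assay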
Description: SANGER: Inhibition of human NCI-H1437 cell growth in a cell viability assay.

NCI-H1581 = type: functional, cell-based, Homo sapiens; details: Homo sapiens, NCI-H1581;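 also: cell growth inhibition read out by a viability assay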
Description: SANGER: Inhibition of human NCI-H1581 cell growth in a cell viability assay.

NCI-H2122 = type: functional, cell-based, Homo sapiens; details: Homo sapiens, NCI-H2122;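 also: growth inhibition of the cells, read out with a cell viability assay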
Description: SANGER: Inhibition of human NCI-H2122 cell growth in a cell viability assay.

NCI-H2347 = type: functional, cell-based, Homo sapiens; details: Homo sapiens, NCI-H2347;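 also: growth inhibition of the cell line, read out with a cell viability assay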
Description: SANGER: Inhibition of human NCI-H2347 cell growth in a cell viability assay.

NY = type: functional, cell-based, Homo sapiens; details: Homo sapiens, NY
Description: SANGER: Inhibition of human NY cell growth in a cell viability assay.

OVCAR-5 = type: functional, cell-based, Homo sapiens; details: Homo sapiens, OVCAR-5;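 also: growth inhibition of human OVCAR-5 cells, read out with a cell viability assay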
Description: SANGER: Inhibition of human OVCAR-5 cell growth in a cell viability assay.

RD = type: functional, cell-based, Homo sapiens; details: Homo sapiens, RD
Description: SANGER: Inhibition of human RD cell growth in a cell viability assay.

RPMI-2650 = type: functional, cell-based, Homo sapiens; details: Homo sapiens, RPMI-2650
Description: SANGER: Inhibition of human RPMI-2650 cell growth in a cell viability assay.

SBC-1 = type: functional, cell-based; details: Homo sapiens;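 also: cell viability assay measuring growth inhibition of the SBC-1 cell line, IC50 being the concentration that halves growth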
Description: SANGER: Inhibition of human SBC-1 cell growth in a cell viability assay.

SF-268 = type: functional, cell-based, Homo sapiens; details: Homo sapiens, SF-268;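 also: growth inhibition of SF-268 cells determined with a cell viability assay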
Description: SANGER: Inhibition of human SF268 cell growth in a cell viability assay.

SK-LMS-1 = type: functional, cell-based, Homo sapiens; details: Homo sapiens, SK-LMS-1;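 also: growth inhibition of human SK-LMS-1 cells, read out with a cell viability assay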
Description: SANGER: Inhibition of human SK-LMS-1 cell growth in a cell viability assay.

SK-PN-DW = type: functional, cell-based; details: Homo sapiens;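 also: growth inhibition measured with a viability assay on these cells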
Description: SANGER: Inhibition of human SK-PN-DW cell growth in a cell viability assay.

SN12C = type: functional, cell-based, Homo sapiens; details: Homo sapiens, SN12C;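 also: growth inhibition of human SN12C cells, measured by a cell viability assay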
Description: SANGER: Inhibition of human SN12C cell growth in a cell viability assay.

SNU-449 = type: functional, cell-based, Homo sapiens; details: Homo sapiens, SNU-449
Description: SANGER: Inhibition of human SNU-449 cell growth in a cell viability assay.

SW982 = type: functional, cell-based; details: Homo sapiens;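 also: growth inhibition of SW982 cells, read out with a cell viability assay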
Description: SANGER: Inhibition of human SW982 cell growth in a cell viability assay.

SAOS-2 = type: functional, cell-based, Homo sapiens; details: Homo sapiens, SAOS-2;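 also: growth inhibition of human Saos-2 cells determined by a cell viability assay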
Description: SANGER: Inhibition of human Saos-2 cell growth in a cell viability assay.

5637 = type: functional, cell-based, Homo sapiens; details: Homo sapiens
Description: SANGER: Inhibition of human 5637 cell growth in a cell viability assay.

639-V = type: functional, cell-based, Homo sapiens; details: Homo sapiens, 639-V;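 also: growth inhibition of 639-V cells, read out with a cell viability assay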
Description: SANGER: Inhibition of human 639-V cell growth in a cell viability assay.

A388 = type: functional, cell-based, Homo sapiens; details: Homo sapiens, A388;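 also: growth inhibition of human A388 cells, read out with a cell viability assay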
Description: SANGER: Inhibition of human A388 cell growth in a cell viability assay.

A4-Fuk = type: functional, cell-based; details: Homo sapiens;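 also: growth inhibition of A4-Fuk cells, read out by a cell viability assay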
Description: SANGER: Inhibition of human A4-Fuk cell growth in a cell viability assay.

ALL-PO = type: functional, cell-based; details: Homo sapiens;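 also: growth inhibition of ALL-PO cells, read out by a cell viability assay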
Description: SANGER: Inhibition of human ALL-PO cell growth in a cell viability assay.

AN3-CA = type: functional, cell-based; details: Homo sapiens;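 also: growth inhibition of human AN3-CA cells measured by a cell viability assay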
Description: SANGER: Inhibition of human AN3-CA cell growth in a cell viability assay.

BHT-101 = type: functional, cell-based, Homo sapiens; details: Homo sapiens, BHT-101
Description: SANGER: Inhibition of human BHT-101 cell growth in a cell viability assay.

C3A = type: functional, cell-based, Homo sapiens; details: Homo sapiens, C3A;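 also: growth inhibition of C3A human cells, quantified with a cell viability readout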
Description: SANGER: Inhibition of human C3A cell growth in a cell viability assay.

CAL-120 = type: functional, cell-based, Homo sapiens; details: Homo sapiens, CAL-120;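 also: cell growth inhibition, read out as cell viability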
Description: SANGER: Inhibition of human CAL-120 cell growth in a cell viability assay.

CAL-51 = type: functional, cell-based, Homo sapiens; details: Homo sapiens, CAL-51;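 also: human CAL-51 cell line, growth inhibition read out via a cell viability assay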
Description: SANGER: Inhibition of human CAL-51 cell growth in a cell viability assay.

VA-ES-BJ = type: functional, cell-based, Homo sapiens; details: Homo sapiens, VA-ES-BJ;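 also: growth inhibition of the VA-ES-BJ cell line, read out by a cell viability assay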
Description: SANGER: Inhibition of human VA-ES-BJ cell growth in a cell viability assay.

WM-115 = type: functional, cell-based, Homo sapiens; details: Homo sapiens, WM-115
Description: SANGER: Inhibition of human WM-115 cell growth in a cell viability assay.

CAMA-1 = type: functional, cell-based, Homo sapiens; details: Homo sapiens, CAMA-1;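 also: growth inhibition of CAMA-1 cells, read out with a cell viability assay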
Description: SANGER: Inhibition of human CAMA-1 cell growth in a cell viability assay.

CN(c1ncccc1CNc1nc(Nc2ccc3c(c2)CC(=O)N3)ncc1C(F)(F)F)S(C)(=O)=O [PF-00562271]
IC50 (COLO-800): > 2.56 µM | IC50 (D283 Med): > 2.56 µM | IC50 (DK-MG): > 2.56 µM | IC50 (ES6): > 2.56 µM | IC50 (EW-11): > 2.56 µM | IC50 (EW-3): > 2.56 µM | IC50 (GAK): > 2.56 µM | IC50 (HCC1937): > 2.56 µM | IC50 (HCC1954): > 2.56 µM | IC50 (HCC2218): > 2.56 µM | IC50 (Huh-7): > 2.56 µM | IC50 (IA-LM): > 2.56 µM | IC50 (IST-SL1): > 2.56 µM | IC50 (KE-37): > 2.56 µM | IC50 (KLE): > 2.56 µM | IC50 (KS-1): > 2.56 µM | IC50 (LAN-6): > 2.56 µM | IC50 (LS-123): > 2.56 µM | IC50 (MC-IXC): > 2.56 µM | IC50 (MDA-MB-453): > 2.56 µM | IC50 (MEG-01): > 2.56 µM | IC50 (MFH-ino): > 2.56 µM | IC50 (MKN-1): > 2.56 µM | IC50 (NCI-H1437): > 2.56 µM | IC50 (NCI-H1581): > 2.56 µM | IC50 (NCI-H2122): > 2.56 µM | IC50 (NCI-H2347): > 2.56 µM | IC50 (NY): > 2.56 µM | IC50 (OVCAR-5): > 2.56 µM | IC50 (RD): > 2.56 µM | IC50 (RPMI-2650): > 2.56 µM | IC50 (SBC-1): > 2.56 µM | IC50 (SF-268): > 2.56 µM | IC50 (SK-LMS-1): > 2.56 µM | IC50 (SK-PN-DW): > 2.56 µM | IC50 (SN12C): > 2.56 µM | IC50 (SNU-449): > 2.56 µM | IC50 (SW982): 0.328 µM | IC50 (SAOS-2): > 2.56 µM | IC50 5637: > 2.56 µM | IC50 (639-V): > 2.56 µM | IC50 (A388): > 2.56 µM | IC50 (A4-Fuk): > 2.56 µM | IC50 (ALL-PO): 1.02 µM | IC50 (AN3-CA): 1.22 µM | IC50 (BHT-101): > 2.56 µM | IC50 (C3A): > 2.56 µM | IC50 (CAL-120): > 2.56 µM | IC50 (CAL-51): > 2.56 µM | IC50 (VA-ES-BJ): 1.9 µM | IC50 (WM-115): > 2.56 µM | IC50 (CAMA-1): > 2.56 µM

C=CCNC1=C2C[C@@H](C)C[C@H](OC)[C@H](O)[C@@H](C)/C=C(\C)[C@H](OC(N)=O)[C@@H](OC)/C=C\C=C(/C)C(=O)NC(=CC1=O)C2=O [TANESPIMYCIN]
IC50 (COLO-800): 0.258 µM | IC50 (D283 Med): > 1 µM | IC50 (DK-MG): 0.372 µM | IC50 (ES6): > 1 µM | IC50 (EW-11): > 1 µM | IC50 (EW-3): 0.127 µM | IC50 (GAK): 0.136 µM | IC50 (HCC1937): 0.163 µM | IC50 (HCC1954): > 1 µM | IC50 (HCC2218): 0.0249 µM | IC50 (Huh-7): > 1 µM | IC50 (IA-LM): > 1 µM | IC50 (IST-SL1): > 1 µM | IC50 (KE-37): > 1 µM | IC50 (KLE): > 1 µM | IC50 (KS-1): 0.0136 µM | IC50 (LAN-6): > 1 µM | IC50 (LS-123): > 1 µM | IC50 (MC-IXC): > 1 µM | IC50 (MDA-MB-453): 0.672 µM | IC50 (MEG-01): > 1 µM | IC50 (MFH-ino): > 1 µM | IC50 (MKN-1): 0.588 µM | IC50 (NCI-H1437): 0.122 µM | IC50 (NCI-H1581): 0.103 µM | IC50 (NCI-H2122): 0.0974 µM | IC50 (NCI-H2347): 0.148 µM | IC50 (NY): > 1 µM | IC50 (OVCAR-5): 0.0348 µM | IC50 (RD): 0.191 µM | IC50 (RPMI-2650): > 1 µM | IC50 (SBC-1): 0.267 µM | IC50 (SF-268): 0.643 µM | IC50 (SK-LMS-1): > 1 µM | IC50 (SK-PN-DW): > 1 µM | IC50 (SN12C): 0.101 µM | IC50 (SNU-449): > 1 µM | IC50 (SW982): 0.03 µM | IC50 (SAOS-2): 0.879 µM | IC50 5637: 0.0574 µM | IC50 (639-V): 0.15 µM | IC50 (A388): 0.765 µM | IC50 (A4-Fuk): > 1 µM | IC50 (ALL-PO): > 1 µM | IC50 (AN3-CA): 0.05 µM | IC50 (BHT-101): > 1 µM | IC50 (C3A): 0.454 µM | IC50 (CAL-120): 0.534 µM | IC50 (CAL-51): 0.014 µM | IC50 (VA-ES-BJ): 0.0445 µM | IC50 (WM-115): 0.0376 µM | IC50 (CAMA-1): 0.129 µM

— ChEMBL document CHEMBL1201861, “Genomics of Drug Sensitity in Cancer screening data, Wellcome Trust Sanger Institute”
